Experimental data taken from patent US20140105948A1, “STABILITY OF PEROXIDE IN ORAL CARE COMPOSTIONS” (INTERCONTINENTAL GREAT BRANDS LLC, priority 2011, published 2014).
Structures can show the parent of a compound that is named as a salt. Residues, ends and D or L forms follow the SMILES beside them.

Tests used:
[1] = Stability of carbamide peroxide stored with sweeteners; format: physicochemical; details: for % Carbamide Peroxide recovered after 4 weeks of aging with sweetener at 25 C.: carbamide peroxide stored with sweetener, four weeks; for tendency of sweetener to react with the peroxide: result in words
Experimental: The present inventors have compared the action of certain sweeteners on the effect with carbamide peroxide, with surprising results. Carbamide peroxide was stored with three sweeteners, and stored for four weeks at 25° C. to determine stability. The three sweeteners included aspartame, acesulfame potassium and sucralose. The percentage of carbamide peroxide recovered after four weeks was measured.

[2] = Shelf life stability of encapsulated carbamide peroxide in chewing gum (Example 1); format: physicochemical; details: without encapsulation, after two weeks of storage
Experimental: The stability of various encapsulants for carbamide peroxide in chewing gum was measured. As explained above, peroxides in general are known to be problematic in the shelf life of chewing gums, as they have a tendency to break down gum base, rendering it ineffective and useless. Chewing gums including various encapsulated carbamide peroxides were prepared and were stored for eight weeks at room temperature and at 37° C. Solid carbamide peroxide was encapsulated in the following encapsulating materials: (1) ethyl cellulose (25% encapsulant weight); (2) polyvinyl acetate B30 (30% encapsulant weight); (3) gum arabic (30% encapsulant weight); (4) mannitol (30% encapsulant weight); and (5) shellac (30% encapsulant weight). These encapsulated particles were used in formulating pieces of chewing gum and were measured for shelf life stability. In addition, a control chewing gum was prepared, which included non-encapsulated (“free”) carbamide peroxide within the gum base. The amount of carbamide peroxide obtained after the study was measured. […] At room temperature after eight weeks, chewing gums including this encapsulated carbamide peroxide had approximately 95% of the carbamide peroxide remaining. Even after eight weeks at elevated temperatures, these products had approximately 80% of the carbamide peroxide remaining.

Row | % Carbamide Peroxide recovered after 4 weeks of aging with sweetener at 25 C. [1] | % Carbamide Peroxide recovered after 4 weeks of aging with sweetener at 25 C. ([1]; listed as aspartame) | tendency of sweetener to react with the peroxide [1] | Compound | carbamide peroxide decomposed in chewing gum product [2]
1 | 92% | – | – | CC1=CC(=O)NS(=O)(=O)O1 [Ace-K, potassium salt of 3,4-dihydro-6-methyl-1,2,3-oxathiazine-4-one-2,2-dioxide] | –
2 | 100% | – | do not react with the peroxide | OC[C@H]1O[C@H](O[C@]2(CCl)O[C@H](CCl)[C@@H](O)[C@@H]2O)[C@H](O)[C@@H](O)[C@H]1Cl [Sucralose] | –
3 | – | – | – | NC(N)=O.OO [carbamide peroxide] | nearly all of the carbamide peroxide is decomposed
4 | – | – | do not react with the peroxide | OC[C@@H](O)[C@@H](O[C@H]1O[C@H](CO)[C@@H](O)[C@H](O)[C@H]1O)[C@H](O)[C@@H](O)CO [maltitol] | –
5 | – | – | do not react with the peroxide | isomalt | –

Row | Compound | % Carbamide Peroxide recovered after 4 weeks of aging with sweetener at 25 C. [1] | % Carbamide Peroxide recovered after 4 weeks of aging with sweetener at 25 C. ([1]; listed as aspartame) | tendency of sweetener to react with the peroxide [1] | carbamide peroxide decomposed in chewing gum product [2]
6 | COC(=O)[C@H](Cc1ccccc1)NC(=O)[C@@H](N)CC(=O)O [Aspartame, L-aspartyl-L-phenylalanine methyl ester] (H-Asp-Phe-OMe) | 78% | significant reduction | have a tendency to react with the peroxide | –
7 | OCC(O)CO [glycerin] | – | – | have a tendency to react with the peroxide | –
